Assay results from US20080262037A1, “Piperidine Derivatives for the Treatment of Chemokine Mediated Disease” (ASTRAZENECA AB, priority 2004, published 2008).
Structures can show the parent of a compound that is named as a salt.

target: T1, human H1 receptor (Homo sapiens, UniProt P35367); assay: Histamine H1 receptor binding, competition displacement of [3H]-pyrilamine; details: displacement of 1 nM [3H]-pyrilamine; membranes from recombinant CHO-K1 cells expressing the human H1 receptor; 1 hour at room temperature; read-out: H1 pKi/[1328_S] (converted)
T1 construct: purchased Euroscreen SA, Brussels, Belgium ES-390-M; host or cells: CHO-K1 cells (membranes)
T1 sequence (P35367 whole entry): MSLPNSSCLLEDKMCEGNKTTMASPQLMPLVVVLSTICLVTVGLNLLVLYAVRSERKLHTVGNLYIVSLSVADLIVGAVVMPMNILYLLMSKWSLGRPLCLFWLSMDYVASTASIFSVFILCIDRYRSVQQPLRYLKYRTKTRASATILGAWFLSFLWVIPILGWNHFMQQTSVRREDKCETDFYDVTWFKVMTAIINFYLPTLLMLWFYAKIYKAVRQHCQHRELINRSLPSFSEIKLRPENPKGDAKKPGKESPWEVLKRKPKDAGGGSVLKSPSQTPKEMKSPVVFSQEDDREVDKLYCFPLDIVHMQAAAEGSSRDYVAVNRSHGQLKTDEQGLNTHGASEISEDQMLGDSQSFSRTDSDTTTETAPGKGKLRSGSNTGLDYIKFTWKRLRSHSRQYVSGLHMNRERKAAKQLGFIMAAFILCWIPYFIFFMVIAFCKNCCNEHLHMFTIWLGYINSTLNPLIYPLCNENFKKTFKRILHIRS

For `COc1ccc(CC(=O)O)cc1N1CCC(CN2CCC(Oc3ccc(Cl)c(Cl)c3)CC2)CC1` [Example 23, [3-(4-{[4-(3,4-Dichlorophenoxy)piperidin-1-yl]methyl}piperidin-1-yl)-4-methoxyphenyl]acetic acid], which Ki is on record?
Its Ki is 0.0126 µM.

How did the Ki turn out when `CC(C)(Oc1ccccc1N1CCC(CN2CCC(Oc3ccc(Cl)c(Cl)c3)CC2)CC1)C(=O)O` [Example 27, 2-[2-(4-{[4-(3,4-Dichlorophenoxy)piperidin-1-yl]methyl}piperidin-1-yl)phenoxy]-2-methylpropanoic acid] was run?
Its Ki is 0.0316 µM.

`C[C@@H](Oc1ccccc1N1CCC(CN2CCC(Oc3ccc(Cl)c(Cl)c3)CC2)CC1)C(=O)O` [Example 28, (2R)-2-[2-(4-{[4-(3,4-Dichlorophenoxy)piperidin-1-yl]methyl}piperidin-1-yl)phenoxy]propanoic acid] was tested. Which Ki did it give?
Its Ki is 0.01 µM.

Which Ki does the source give for `C[C@H](Oc1ccccc1N1CCC(CN2CCC(Oc3ccc(Cl)c(Cl)c3)CC2)CC1)C(=O)O` [Example 29, (2S)-2-[2-(4-{[4-(3,4-Dichlorophenoxy)piperidin-1-yl]methyl}piperidin-1-yl)phenoxy]propanoic acid] here?
The Ki was 0.0126 µM.

Which Ki does the source give for `C[C@@H](Oc1cccc(N2CCC(CN3CCC(Oc4ccc(Cl)c(Cl)c4)CC3)CC2)c1)C(=O)O` [Example 30, (2R)-2-[3-(4-{[4-(3,4-Dichlorophenoxy)piperidin-1-yl]methyl}piperidin-1-yl)phenoxy]propanoic acid] here?
The Ki was 0.0126 µM.

With `Cc1c(OC2CCN(CC3CCN(c4ccc(CC(=O)O)cc4)CC3)CC2)ccc(Cl)c1Cl` [Example 33, [4-(4-{[4-(3,4-Dichloro-2-methylphenoxy)piperidin-1-yl]methyl}piperidin-1-yl)phenyl]acetic acid] as the compound, how does the Ki read?
Its Ki is 0.0126 µM.

With `Cc1c(OC2CCN(CC3CCN(c4cccc(O[C@H](C)C(=O)O)c4)CC3)CC2)ccc(C#N)c1Cl` [Example 37, (2R)-2-[3-(4-{[4-(3-Chloro-4-cyano-2-methylphenoxy)piperidin-1-yl]methyl}piperidin-1-yl)phenoxy]propanoic acid] as the compound, how does the Ki read?
Its Ki is 0.398 µM.

`O=C(O)COc1ccc(Cl)cc1N1CCC(CN2CCC(Oc3ccc(Cl)c(Cl)c3)CC2)CC1` [Example 39, (4-Chloro-2-{4-[4-(3,4-dichloro-phenoxy)-piperidin-1-ylmethyl]-piperidin-1-yl}-phenoxy)-acetic acid hydrochloride] was tested. Which Ki did it give?
The Ki was 0.002 µM.

`O=C(O)COc1c(Cl)cccc1N1CCC(CN2CCC(Oc3ccc(Cl)c(Cl)c3)CC2)CC1` [Example 40, (2-chloro-6-{4-[4-(3,4-dichloro-phenoxy)-piperidin-1-ylmethyl]-piperidin-1-yl}-phenoxy)-acetic acid] was tested. Which Ki did it give?
Its Ki is 0.00316 µM.

`Cc1c(OC2CCN(CC3CCN(c4cccc(O[C@@H](C)C(=O)O)c4)CC3)CC2)ccc(Cl)c1Cl` [Example 44, (2S)-2-[3-(4-{[4-(3,4-dichloro-2-methylphenoxy)piperidin-1-yl]methyl}piperidin-1-yl)phenoxy]propanoic acid] was tested. Which Ki did it give?
Its Ki is 0.02 µM.
